Measured values taken from patent publication US10208020B2, “Substituted amino triazoles useful as human chitinase inhibitors” (OncoArendi Therapeutics S.A., priority 2015, dated 2019).

Experiments:
recombinant human CHIT1 = recombinant human CHIT1 (Homo sapiens (Human), UniProt Q13231); assay: Human CHIT1 activity assay; format: biochemical; conditions: citrate buffer pH 5.2, 37° C., 60 minutes; 4-methylumbelliferyl β-D-N,N′,N″-triacetylchitotriose substrate; read-out: Activity on hCHIT1, IC50
Sequence of recombinant human CHIT1 (Q13231 22-466): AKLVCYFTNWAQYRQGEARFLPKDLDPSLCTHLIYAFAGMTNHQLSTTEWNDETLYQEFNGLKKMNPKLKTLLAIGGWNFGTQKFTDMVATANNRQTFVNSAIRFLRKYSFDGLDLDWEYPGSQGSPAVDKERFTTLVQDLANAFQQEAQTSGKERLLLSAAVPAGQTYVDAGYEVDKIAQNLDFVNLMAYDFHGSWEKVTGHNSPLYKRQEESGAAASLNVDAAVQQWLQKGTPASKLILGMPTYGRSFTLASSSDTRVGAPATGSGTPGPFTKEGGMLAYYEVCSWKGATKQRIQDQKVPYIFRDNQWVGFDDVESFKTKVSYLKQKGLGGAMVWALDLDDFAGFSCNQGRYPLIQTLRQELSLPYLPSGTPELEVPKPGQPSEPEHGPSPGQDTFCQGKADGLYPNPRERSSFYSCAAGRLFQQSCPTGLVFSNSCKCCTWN

recombinant human AMCase = recombinant human AMCase (Homo sapiens (Human), UniProt Q9BZP6); assay: Human AMCase activity assay; format: biochemical; conditions: citrate buffer pH 5.2, 37° C., 60 minutes; 4-methylumbelliferyl B-D-N,N′-diacetylchitobioside substrate; read-out: Activity on hAMCase, IC50
Sequence of recombinant human AMCase (Q9BZP6 22-476): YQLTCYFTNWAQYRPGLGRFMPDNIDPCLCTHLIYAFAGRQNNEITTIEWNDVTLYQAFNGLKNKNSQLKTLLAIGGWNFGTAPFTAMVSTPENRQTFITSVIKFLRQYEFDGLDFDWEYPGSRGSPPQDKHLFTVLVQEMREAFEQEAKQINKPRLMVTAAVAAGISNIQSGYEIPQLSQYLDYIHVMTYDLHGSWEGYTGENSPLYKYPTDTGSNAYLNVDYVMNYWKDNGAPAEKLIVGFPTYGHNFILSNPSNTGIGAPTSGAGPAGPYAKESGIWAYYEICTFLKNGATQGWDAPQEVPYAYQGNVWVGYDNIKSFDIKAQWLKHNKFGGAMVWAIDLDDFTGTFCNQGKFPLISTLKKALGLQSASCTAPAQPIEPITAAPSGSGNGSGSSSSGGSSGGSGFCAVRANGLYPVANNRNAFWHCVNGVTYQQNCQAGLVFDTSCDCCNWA

| SMILES | IC50 (recombinant human CHIT1) [µM] | IC50 (recombinant human AMCase) [µM] |
| --- | --- | --- |
| Nc1nnc(N2CCC(N3CC(C(=O)O)CC[C@@H]3Cc3ccc(Cl)cc3)CC2)[nH]1 (stereo partly drawn) [Example 17, (6R)-1′-(5-amino-4H-1,2,4-triazol-3-yl)-6-(4-chlorobenzyl)-[1,4′-bipiperidine]-3-carboxylic acid] | 0.1 to 1 | – |
| CC1(C(=O)O)CC[C@H](Cc2ccc(Cl)cc2)N(C2CCN(c3nnc(N)[nH]3)CC2)C1 (stereo partly drawn) [Example 18, (6R)-1′-(5-amino-4H-1,2,4-triazol-3-yl)-6-(4-chlorobenzyl)-3-methyl-[1,4′-bipiperidine]-3-carboxylic acid] | 1 to 10 | – |
| CCOC(=O)C1CC[C@H](Cc2ccc(Cl)cc2)N(C2CCN(c3nnc(N)[nH]3)CC2)C1 (stereo partly drawn) [Example 16, ethyl (6R)-1′-(5-amino-4H-1,2,4-triazol-3-yl)-6-(4-chlorobenzyl)-[1,4′-bipiperidine]-3-carboxylate] | < 0.1 | – |
| C[C@H]1CN(C2CCN(c3nnc(N)[nH]3)CC2)[C@@H](Cc2ccc(Cl)cc2)CN1S(C)(=O)=O [Example 37, 5-(4-((2S,5S)-2-(4-chlorobenzyl)-5-methyl-4-(methylsulfonyl)piperazin-1-yl)piperidin-1-yl)-4H-1,2,4-triazol-3-amine] | 10 to 100 | – |
| Nc1nnc(N2CCC(N3CCOC[C@@H]3Cc3ccc(Br)cc3)CC2)[nH]1 [Example 3, (S)-5-(4-(3-(4-bromobenzyl)morpholino)piperidin-1-yl)-4H-1,2,4-triazol-3-amine] | < 0.1 | – |
| C[C@H]1CN(C2CCN(c3nnc(N)[nH]3)CC2)[C@@H](Cc2ccc(Cl)cc2)CN1CC(=O)O [Example 41, 2-((2S,5S)-4-(1-(5-amino-4H-1,2,4-triazol-3-yl)piperidin-4-yl)-5-(4-chlorobenzyl)-2-methylpiperazin-1-yl)acetic acid] | 0.1 to 1 | < 0.1 |
| COC(C)(C)[C@H]1CN(C2CCN(c3nnc(N)[nH]3)CC2)[C@@H](Cc2ccc(Cl)cc2)CO1 [Example 14, 5-(4-((2R,5S)-5-(4-chlorobenzyl)-2-(2-methoxypropan-2-yl)morpholino)piperidin-1-yl)-4H-1,2,4-triazol-3-amine] | < 0.1 | < 0.1 |
| Nc1nnc(N2CCC(N3CCCC[C@@H]3Cc3ccc(Cl)cc3)CC2)[nH]1 [Example 15, (R)-5-(2-(4-chlorobenzyl)-[1,4′-bipiperidin]-1′-yl)-4H-1,2,4-triazol-3-amine] | < 0.1 | – |
| COC(=O)CN1C[C@H](Cc2ccc(Cl)cc2)N(C2CCN(c3nnc(N)[nH]3)CC2)C[C@@H]1C [Example 40, methyl 2-((2S,5S)-4-(1-(5-amino-4H-1,2,4-triazol-3-yl)piperidin-4-yl)-5-(4-chlorobenzyl)-2-methylpiperazin-1-yl)acetate] | 0.1 to 1 | < 0.1 |
| CCOC[C@H]1CN(C2CCN(c3nnc(N)[nH]3)CC2)[C@@H](Cc2ccc(Cl)cc2)CO1 [Example 11, 5-(4-((2R,5S)-5-(4-chlorobenzyl)-2-(ethoxymethyl)morpholino)piperidin-1-yl)-4H-1,2,4-triazol-3-amine] | – | < 0.1 |
| Nc1nnc(N2CCC(N3C[C@@H]4CCCN4C[C@@H]3Cc3ccc(Cl)cc3)CC2)[nH]1 [Example 49, 5-(4-((3S,8aS)-3-(4-chlorobenzyl)hexahydropyrrolo[1,2-a]pyrazin-2(1H)-yl)piperidin-1-yl)-4H-1,2,4-triazol-3-amine] | 1 to 10 | < 0.1 |
| C[C@H]1CN(C2CCN(c3nnc(N)[nH]3)CC2)[C@@H](Cc2ccc(Cl)cc2)C(C)(C)O1 [Example 53, 5-(4-((3S,6S)-3-(4-chlorobenzyl)-2,2,6-trimethylmorpholino)piperidin-1-yl)-4H-1,2,4-triazol-3-amine] | 10 to 100 | – |
| Cc1ccc(S(=O)(=O)N2CCN(C3CCN(c4nnc(N)[nH]4)CC3)[C@@H](Cc3ccc(Cl)cc3)C2)cc1 [Example 35, (S)-5-(4-(2-(4-chlorobenzyl)-4-tosylpiperazin-1-yl)piperidin-1-yl)-4H-1,2,4-triazol-3-amine] | 10 to 100 | – |
| Nc1nnc(N2CCC(N3CCOC[C@@H]3Cc3ccc(Cl)cc3)CC2)[nH]1 [Example 1, (S)-5-(4-(3-(4-chlorobenzyl)morpholino)piperidin-1-yl)-4H-1,2,4-triazol-3-amine] | < 0.1 | – |
| COC(=O)N1C[C@H](Cc2ccc(Cl)cc2)N(C2CCN(c3nnc(N)[nH]3)CC2)C[C@@H]1C [Example 39, methyl (2S,5S)-4-(1-(5-amino-4H-1,2,4-triazol-3-yl)piperidin-4-yl)-5-(4-chlorobenzyl)-2-methylpiperazine-1-carboxylate] | 10 to 100 | – |
